Laboratory results from ChEMBL document CHEMBL1131476, “Synthesis of a methylenebis(phosphonate) analogue of mycophenolic adenine dinucleotide: a glucuronidation-resistant MAD analogue of NAD” (J Med Chem, 1998).

Assays:
[1] = target: Inosine-5'-monophosphate dehydrogenase 1 (Homo sapiens, UniProt P20839); experiment: Inhibitory activity against human Inosine-5'-monophosphate dehydrogenase 1 (IMPDH type I isoform); Range is 33-37 nM
K562 = experiment: Inhibitory activity against growth of human erythroleukemia […] cells; assay type: functional, cell-based
[2] = target: Inosine-5'-monophosphate dehydrogenase 2 (Homo sapiens, UniProt P12268); experiment: Inhibitory activity against human Inosine-5'-monophosphate dehydrogenase 2 (IMPDH type II isoform)

Sequence of Inosine-5'-monophosphate dehydrogenase 1 (P20839 whole entry, canonical isoform): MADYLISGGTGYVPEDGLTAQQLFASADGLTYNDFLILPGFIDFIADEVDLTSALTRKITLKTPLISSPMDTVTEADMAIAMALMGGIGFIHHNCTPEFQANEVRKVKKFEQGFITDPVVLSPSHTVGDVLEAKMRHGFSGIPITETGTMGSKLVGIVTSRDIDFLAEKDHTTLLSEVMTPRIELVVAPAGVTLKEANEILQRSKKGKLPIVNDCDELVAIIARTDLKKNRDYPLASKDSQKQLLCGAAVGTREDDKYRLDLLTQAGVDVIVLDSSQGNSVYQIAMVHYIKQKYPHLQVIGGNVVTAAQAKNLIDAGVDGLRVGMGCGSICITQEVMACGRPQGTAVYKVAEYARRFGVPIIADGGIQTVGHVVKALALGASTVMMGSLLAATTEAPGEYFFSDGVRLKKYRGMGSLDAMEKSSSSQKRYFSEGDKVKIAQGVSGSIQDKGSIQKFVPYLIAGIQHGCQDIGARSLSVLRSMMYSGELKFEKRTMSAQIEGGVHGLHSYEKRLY

| SMILES | Ki [1] [nM] | IC50 (K562) [nM] | Ki [2] [nM] |
| --- | --- | --- | --- |
| COc1c(C)c2c(c(O)c1C/C=C(\C)CCC(=O)O)C(=O)OC2 [MYCOPHENOLIC ACID] | 33 | 80 | – |
| COc1c(C)c2c(c(O)c1C/C=C(\C)CCCO)C(=O)OC2 | – | 1500 | – |
| COc1c(C)c2c(c(O)c1C/C=C(\C)CCCOP(=O)(O)CP(=O)(O)OC[C@@H]1OC(n3cnc4c(N)ncnc43)[C@@H](O)[C@H]1O)C(=O)OC2 (stereo not given in full) | – | 1500 | 300 |
